Results published in paper PMC7503767, “Alkoxyamines Designed as Potential Drugs against Plasmodium and Schistosoma Parasites” (Molecules, 2020).
pIC50: −log10 of the molar value. Where two headings read alike, the source gives them in different places. Marks after values point to notes of the source that are not given here.

Tests used:
[1] = tested on: P. falciparum chloroquine-resistant strain FcB1-Columbia; assay: Antiplasmodial screen at 10 µM and chemosensitivity assay (SYBR Green I), FcB1-Columbia; format: cell-based, Plasmodium falciparum; settings: FcB1-Columbia strain, read-out: IC50 on P. falciparum
[2] = tested on: Adult S. mansoni; assay: In vitro antischistosomal activity on adult worms; format: cell-based, Schistosoma mansoni; settings: for Mean (±SD) survival time – Adult S. mansoni / Time for the death of 100% worms: 100 µg/mL; for Mean (±SD) survival time – Adult S. mansoni: observation up to 8 h (Table S1)
From the text: The NMRI strain of Schistosoma mansoni was used for the experimentations. The parasite was maintained on an albino variety of Biomphalaria glabrata from Brazil (intermediate host) and in Golden Hamsters, Mesocricetus auratus (Janvier Labs, Le Genest-Saint-Isle, France). Detailed methods, for mollusk and hamster infections and for parasite recovery, were previously described.
Adult worms were recovered between 42 and 47 days after infection by hepatic perfusion technique. Twenty to fifty adult worms were disposed in 12-well Falcon® plate containing 2 mL of RPMI 1640 (supplemented with L-glutamine and Hepes 25 mM) and stored in an incubator chamber (37 °C; 5% CO2). Drug preparation started with dissolution of the drug in DMSO to give a 100 mg/mL stock solution. The dilution was complemented with Tween 80 and RPMI in order to obtain the following final ratio dilution: RPMI 1640/Tween 80/DMSO, 1000/0.95/3.8, v/v/v. The drug solution was added to Falcon plates that contained adult worms. The S. mansoni cultures were then incubated with each drug at a final concentration of 100 µg/mL. Positive control was carried out with a solution of praziquantel (Merck KGaA, Darmstadt, Germany) at a concentration of 100 µg/mL. Negative control was carried out with the same RPMI 1640/Tween 80/DMSO solution, but without any drug. Each test was performed in duplicate. Every hour, moving worms were counted in order to define the percentage of survivors. Parasites showing no body contractions during a 30 s observation were considered as dead. Observations were extended to 8 h. Mean survival times (± standard deviation) were calculated for each drug using Kaplan–Meier survival analyses.

[3] = Homolysis of the NO–C bond measured by EPR
Experimental: Homolysis rate constants kd’ were measured by EPR and estimated using Equation (1) as reported many times in the literature. Further, Ea and kd were estimated using Equation (2). (1) ln([nitroxide]∞−[nitroxide]t/[nitroxide]∞)=−kd·t (2) Ea=−RT ln([…] kd′ )

[4] = adult S. mansoni, observation up to 8 h

Row | Compound | Mean (±SD) survival time – Adult S. mansoni [2] | Time for the death of 100% worms [2, 4] | other results
1 | CCOP(=O)(OCC)C(N(OC(C)c1ncc[nH]1)C(C)(C)C)C(C)(C)C (centres unmarked) [(RS/SR)-1k] | > 8 h | > 8 h | pIC50 [1]: < 5.00
2 | CCOP(=O)(OCC)C(N(OC(COC)c1ccccc1)C(C)(C)C)C(C)(C)C (centres unmarked) [(RS/SR)-1D] | 3.8 ± 0.5 h | 6 h | pIC50 [1]: < 5.00
3 | CCOP(=O)(OCC)C(N(OC(C)c1cn(C)cn1)C(C)(C)C)C(C)(C)C (centres unmarked) [(RS/SR)-1q] | 1.3 ± 0.2 h | 2 h | 
4 | CCOP(=O)(OCC)C(N(OC(CNC(=O)C(F)(F)F)c1ccccn1)C(C)(C)C)C(C)(C)C (centres unmarked) [(RS/SR)-1h] | > 8 h | > 8 h | pIC50 [1]: < 5.00
5 | CCOP(=O)(OCC)[C@@H](N(O[C@H](C)n1cc[n+](C)c1)C(C)(C)C)C(C)(C)C.Cc1ccc(S(=O)(=O)[O-])cc1 (relative stereo) [(RR/SS)-1n] | > 8 h | > 8 h | 
6 | CCOP(=O)(OCC)C(N(OC(C)c1ccccn1)C(C)(C)C)C(C)(C)C (centres unmarked) [(RR/SS)-1c] |  |  | pIC50 [1]: < 5.00
7 | CCOP(=O)(OCC)C(N(OC(C)c1cn(C)c[n+]1C)C(C)(C)C)C(C)(C)C.[I-] (centres unmarked) [(RR/SS)-1r] |  | 4 h | 
8 | CCOP(=O)(OCC)C(N(OC(C)c1cc(-c2ccccn2)nc(-c2ccccn2)c1)C(C)(C)CO[Si](C)(C)C(C)(C)C)C(C)(C)C (centres unmarked) [(RS/SR)-6F, Diethyl(1-((1-([2,2′:6′,2′′-terpyridin]-4′-yl)ethoxy)(1-((tert-butyldimethylsilyl)oxy)-2-methylpropan-2-yl)amino)-2,2-dimethylpropyl)phosphonate] |  |  | activation energy Ea ([3]; t-BuPh): 121.7 kJ/mol; half-lifetime t1/2 at 37 °C ([3]; t-BuPh): 10 days; re-estimated homolysis rate constant kd at 120 °C ([3]; t-BuPh): 16.3 10^−3 s^−1; homolysis rate constant kd′ ([3]; t-BuPh, 81 °C): 2.7 10^−4s^−1
9 | CCOP(=O)(OCC)C(N(OC(C)c1cn(C)c[n+]1C)C(C)(C)C)C(C)(C)C.[I-] (centres unmarked) [(RS/SR)-1r] |  | 6 h | 
10 | CCOP(=O)(OCC)C(N(OC(C)c1cc(-c2ccccc2)cc(-c2ccccc2)c1)C(C)(C)CO[Si](C)(C)C(C)(C)C)C(C)(C)C (centres unmarked) [(RR/SS)-6G, Diethyl(1-((1-([1,1′:3′,1′′-terphenyl]-5′-yl)ethoxy)(1-((tert-butyldimethylsilyl)oxy)-2-methylpropan-2-yl)amino)-2,2-dimethylpropyl)phosphonate] |  |  | half-life ([3]; half-lifetime t1/2 at 37 °C, t-BuPh): 33.4 days; activation energy Ea ([3]; t-BuPh): 125.5 kJ/mol; re-estimated homolysis rate constant kd at 120 °C ([3]; t-BuPh): 5.10 10^−3 s^−1; homolysis rate constant kd′ ([3]; t-BuPh, 92 °C): 2.7 10^−4s^−1
11 | CC(ON1C(C)(C)CCCC1(C)C)c1cccnc1 (centres unmarked) [9b] |  | 3 h | 
12 | CCOP(=O)(OCC)C(N(OC(C)c1ccccc1)C(C)(C)C(=O)OC)C(C)(C)C (centres unmarked) [(RS/SR)-5z] | > 8 h | > 8 h | 
13 | CCOP(=O)(OCC)C(N(OC(C)c1cccnc1)C(C)(C)CO)C(C)(C)C (centres unmarked) [2b] | > 8 h | > 8 h | 
14 | CCOP(=O)(OCC)C(N(OC(C)c1cc(-c2ccccn2)nc(-c2ccccn2)c1)C(C)(C)C)C(C)(C)C (centres unmarked) [1F] |  |  | pIC50 [1]: < 5.00
15 | CCOP(=O)(OCC)C(N(OC(C)n1cc[n+](C)c1)C(C)(C)C)C(C)(C)C.Cc1ccc(S(=O)(=O)[O-])cc1 (centres unmarked) [(RS/SR)-1n] | > 8 h | > 8 h | 
16 | CC(ON(C(C)(C)C)C(C)(C)C)c1ccncc1 (centres unmarked) [14a] | 2.5 ± 0.10 h | 3 h | 
17 | CCOP(=O)(OCC)C(N(OC(C)c1ccncc1)C(C)(C)CO)C(C)(C)C (centres unmarked) [2a] | > 8 h | > 8 h | 
18 | CC(ON1C(C)(C)CC(O)CC1(C)C)c1ccncc1 (centres unmarked) [8a] | > 8 h | > 8 h | 

Row | Compound | Mean (±SD) survival time – Adult S. mansoni [2] | Time for the death of 100% worms [2, 4] | other results
19 | CCOP(=O)(OCC)C(N(OC(C)c1ccccn1)C(C)(C)CO)C(C)(C)C (centres unmarked) [(RS/SR)-2c] |  |  | pIC50 [1]: < 5.00
20 | CCOP(=O)(OCC)C(N(OC(C)c1ccccc1)C(C)(C)C(=O)O)C(C)(C)C (centres unmarked) [(RS/SR)-4z] | > 8 h | > 8 h | 
21 | 4-hydroxy-tetramethylpiperidine-N-oxyl [compound 8] | > 8 h | > 8 h | 
22 | CCOP(=O)(OCC)C(N(OC(C)c1cc(-c2ccccc2)cc(-c2ccccc2)c1)C(C)(C)CO)C(C)(C)C (centres unmarked) [(RS/SR)-2G, Diethyl(1-((1-([1,1′:3′,1′′-terphenyl]-5′-yl)ethoxy)(1-hydroxy-2-methylpropan-2-yl)amino)-2,2-dimethylpropyl)phosphonate] | > 8 h | > 8 h | activation energy Ea ([3]; MeOH/water 2:1 pH = 7.0): 122.1 kJ/mol; half-lifetime t1/2 at 37 °C ([3]; MeOH/water 2:1 pH = 7.0): 12.7 days; re-estimated homolysis rate constant kd at 120 °C ([3]; MeOH/water 2:1 pH = 7.0): 14.4 10^−3 s^−1; homolysis rate constant kd′ ([3]; MeOH/water 2:1 pH = 7.0, 81 °C): 2.3 10^−4s^−1; activation energy Ea ([3]; t-BuPh): 120.8 kJ/mol; half-lifetime t1/2 at 37 °C ([3]; t-BuPh): 7.5 days; re-estimated homolysis rate constant kd at 120 °C ([3]; t-BuPh): 21.6 10^−3 s^−1; homolysis rate constant kd′ ([3]; t-BuPh, 81 °C): 3.7 10^−4s^−1
23 | CCOP(=O)(OCC)C(N(OC(C)c1cccnc1)C(C)(C)C)C(C)(C)C (centres unmarked) [(RR/SS)-1b] |  |  | pIC50 [1]: 4.65
24 | CCOP(=O)(OCC)C(N(OC(C)c1cn(C)cn1)C(C)(C)C)C(C)(C)C (centres unmarked) [(RR/SS)-1q] | 3.3 ± 0.9 h | 6 h | 
25 | CC(ON1C(C)(C)CCCC1(C)C)c1cc(-c2ccccn2)nc(-c2ccccn2)c1 (centres unmarked) [9F] |  |  | activation energy Ea ([3]; MeOH/water 1:1 pH = 7.4): 131.9 ^k kJ/mol; re-estimated homolysis rate constant kd at 120 °C ([3]; MeOH/water 1:1 pH = 7.4): 0.7 ^k 10^−3 s^−1; half-lifetime t1/2 at 37 °C ([3]; MeOH/water 1:1 pH = 7.4 (aqueous medium)): 385 ^k day; homolysis rate constant kd′ ([3]; MeOH/water 1:1 pH = 7.4, 90 °C): 0.25 ^k 10^−4s^−1; activation energy Ea ([3]; t-BuPh): 131.0 ^k kJ/mol; half-lifetime t1/2 at 37 °C ([3]; t-BuPh): 385 ^k day; re-estimated homolysis rate constant kd at 120 °C ([3]; t-BuPh): 0.95 ^k 10^−3 s^−1; homolysis rate constant kd′ ([3]; t-BuPh, 111 °C): 3.7 ^k 10^−4s^−1
26 | CCOP(=O)(OCC)C(N(OC(C)c1ccc(C)cc1)C(C)(C)C)C(C)(C)C (centres unmarked) [(RS/SR)-1s] | 3.3 ± 0.1 h | 4 h | 
27 | CC(ON1C(C)(C)CC(O)CC1(C)C)c1ccccc1 (centres unmarked) [8z] | 1.9 ± 0.1 h | 2 h | 
28 | CCOP(=O)(OCC)C(N(OC(CN)c1ccncc1)C(C)(C)C)C(C)(C)C (centres unmarked) [(RS/SR)-1f] |  |  | pIC50 [1]: < 5.00
29 | O=C(C1CCCCC1)N1CC(=O)N2CCc3ccccc3C2C1 (centres unmarked) [Praziquantel, praziquantel, reference compound] | 1.0 ± 0.05 h | 1 h | S. mansoni Mean Survival Time ([2]; adult S. mansoni, single dose 100 µg/mL, observation up to 8 h): 1.0 ± 0.05 h
30 | CC(ON1C(C)(C)CC(O)CC1(C)C)c1cccnc1 (centres unmarked) [8b] | > 8 h | > 8 h | 
31 | CCOP(=O)(OCC)C(N(OC(C)c1cc(-c2ccccn2)nc(-c2ccccn2)c1)C(C)(C)CO[Si](C)(C)C(C)(C)C)C(C)(C)C (centres unmarked) [(RR/SS)-6F, Diethyl(1-((1-([2,2′:6′,2′′-terpyridin]-4′-yl)ethoxy)(1-((tert-butyldimethylsilyl)oxy)-2-methylpropan-2-yl)amino)-2,2-dimethylpropyl)phosphonate] |  |  | activation energy Ea ([3]; t-BuPh): 123.8 kJ/mol; half-lifetime t1/2 at 37 °C ([3]; t-BuPh): 24 days; re-estimated homolysis rate constant kd at 120 °C ([3]; t-BuPh): 8.5 10^−3 s^−1; homolysis rate constant kd′ ([3]; t-BuPh, 81 °C): 1.4 10^−4s^−1
32 | CCOP(=O)(OCC)C(N(OC(C)c1ccc(C)cc1)C(C)(C)C)C(C)(C)C (centres unmarked) [(RR/SS)-1s] | > 8 h | > 8 h | 
33 | CCOP(=O)(OCC)C(N(OC(C)c1cccnc1)C(C)(C)C)C(C)(C)C (centres unmarked) [(RS/SR)-1b] |  |  | pIC50 ([1]; listed as (RS/SR)-1B): < 5.00
34 | CC(ON1C(C)(C)CCCC1(C)C)c1ccccc1 (centres unmarked) [9z] | > 8 h | > 8 h | 
35 | CCOP(=O)(OCC)C(N(OC(C)c1cc(-c2ccccc2)cc(-c2ccccc2)c1)C(C)(C)CO[Si](C)(C)C(C)(C)C)C(C)(C)C (centres unmarked) [(RS/SR)-6G, Diethyl(1-((1-([1,1′:3′,1′′-terphenyl]-5′-yl)ethoxy)(1-((tert-butyldimethylsilyl)oxy)-2-methylpropan-2-yl)amino)-2,2-dimethylpropyl)phosphonate] |  |  | activation energy Ea ([3]; t-BuPh): 124.7 kJ/mol; re-estimated homolysis rate constant kd at 120 °C ([3]; t-BuPh): 6.50 10^−3 s^−1; homolysis rate constant kd′ ([3]; t-BuPh, 92 °C): 3.5 10^−4s^−1
